PubChem BioAssay (NCI)
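Five compound concentrations were applied to cells in 96-well plates for 48 hours; endpoints were derived by simple linear interpolation of the resulting dose-response curve. Here, GI50 denotes the concentration required for 50% inhibition of growth. TGI: concentration producing complete growth inhibition.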

What was measured:
Test in all cases: NCI tumour cell line growth inhibition, 48 h
HCT-116 colon = system: HCT-116 colon
SK-MEL-5 melanoma = system: SK-MEL-5 melanoma
IGROV1 ovarian = system: IGROV1 ovarian
A498 renal = system: A498 renal
UACC-257 melanoma = system: UACC-257 melanoma
RXF 393 renal = system: RXF 393 renal
ACHN renal = system: ACHN renal
COLO 205 colon = system: COLO 205 colon
UO-31 renal = system: UO-31 renal
EKVX NSCLC = system: EKVX NSCLC

Compound	TGI (HCT-116 colon) [µM]	TGI (SK-MEL-5 melanoma) [µM]	TGI (IGROV1 ovarian) [µM]	TGI (A498 renal) [µM]	TGI (UACC-257 melanoma) [µM]	TGI (RXF 393 renal) [µM]	TGI (ACHN renal) [µM]	TGI (COLO 205 colon) [µM]	TGI (UO-31 renal) [µM]	TGI (EKVX NSCLC) [µM]	GI50 (HCT-116 colon) [µM]	GI50 (SK-MEL-5 melanoma) [µM]	GI50 (IGROV1 ovarian) [µM]	GI50 (A498 renal) [µM]	GI50 (UACC-257 melanoma) [µM]	GI50 (RXF 393 renal) [µM]	GI50 (ACHN renal) [µM]	GI50 (COLO 205 colon) [µM]	GI50 (UO-31 renal) [µM]	GI50 (EKVX NSCLC) [µM]
Cc1nc(-n2nc(-c3ccccc3)cc2-c2ccccc2)sc1C(/C=C/c1ccc([N+](=O)[O-])cc1)=N/NC(N)=S	43.4	> 100	> 100	> 100	> 100	> 100	> 100	> 100	> 100	> 100										
CCCCC1N=CNc2c1ccc1c2[nH]c2ccccc21 (stereo not given)	3.32	2.95	8.18	29.8	3.3	2.16	5.45	3.27	21.9	21.6										
O=C(c1ccccc1)c1c2n(c3c1cc(O)c1ccccc13)CCN2	10.9	25.1	4.84	35.4	3.4	27.1	33.1	3.31	31.3	22.5	3.44	12.1	2.19	18.3	1.91	11.1	13.5	1.8	16.2	8.63
N/C(=N\C(N)=N\c1nc2ccccc2s1)c1ccnc(Br)c1	> 100	> 100	> 100	41	> 100	27.1	> 100	> 100	84	> 100	3.28	3.49	3.63	5.14	> 100	2.81	5.22	11	3.56	30.4
Cc1cc2nc3c4cc([N+](=O)[O-])ccc4n(CCN(C)C)c3nc2cc1C	2.84	2.21	3.23	1.74	4.21	2.21	1.68	2.48	2.52	5.49	0.353	1.02	0.385	0.452	0.725	0.65	0.297	0.363	0.187	0.579
CCN(CC)CC(O)c1cc(-c2ccc(Cl)cc2)nc2cc(Cl)ccc12 (stereo not given)	3.15	2.99	2.47	10.1	3.61	7.32	3.39	3.34	3.27	8.04	1.65	1.61	0.518	2.95	1.86	2.75	1.64	1.65	1.06	1.76
O=C(NCCCl)NCc1ccccc1	> 100	> 100	> 100	> 100	> 100	> 100	> 100	> 100	> 100	> 100										
CCN(CC)CCNC(=O)C(Cl)=C1C(Cl)=C(Cl)C(Cl)=C1Cl	4.4	11.1	> 100	12.5	11.7	15.9	24.6	13.4	26	> 100	1.78	2.98	3.19	2.59	2.49	3.76	3.35	4.21	6.88	6.44
COc1cc([C@@H]2c3cc4c(cc3[C@@H](NC(=O)c3ccc(OC(C)=O)cc3)C3COC(=O)[C@@H]32)OCO4)cc(OC)c1O (stereo not given in full)	15.3	13.2	7.77	8.75	31.9	36.3	3.16	35.7	30.6	21.2										
COc1ccc2c(c1)C(=O)c1c-2c(OCCN2CCCCC2)nc2ccc(OC)cc12	1.64	5.61	6.58	4.73	6.9	11	3.26	11.1	1.67	4.12	0.393	1.92	0.708	1.04	2.07	1.9	0.425	0.723	0.259	1
Nc1nc(Cl)nc2c1ncn2C1OC(CO)C(O)C1O (stereo not given)	> 100	> 100	> 100	> 100	> 100	> 100	> 100	> 100	> 100	> 100	4.23	2.89	> 100	> 64.4	> 100	> 100	3.98	5.76	3.32	> 96.8
Cc1ccnc(NC(c2ccccc2)c2ccc3cccnc3c2O)c1 (stereo not given)	14.5	15.6	23.3	9.55	9.9	> 100	> 100	73.4	14.6	15.8	2.94	4.31	2.33	2.08	2.62	7.93	3.46	14.3	1.3	2.64
